The values below come from patent US12344618B2, “Heterotricyclic derivative compound and use of same” (HANMI PHARMACEUTICAL CO., LTD., priority 2019, dated 2025).

One test concerns the target EZH2 (Homo sapiens, UniProt Q15910). Kind of test: Inhibitory activity against EZH2 methyltransferase (radiometric scintillation proximity assay).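 Note: Read-out is substrate peptide methylation, captured on streptavidin-coated SPA beads and counted by scintillation, with the reaction run in Tris-HCl buffer at pH 8.0 containing 1% DMSO.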 The settings on record: Enzyme inhibitory activity (IC50, nM) EZH2, 2.3 nmol/L enzyme, 90 minutes, room temperature.
The target in a further test is T1, EZH1 (Homo sapiens, UniProt Q92800).
T1 construct: purchased Reaction Biology Corp. (contract assay)
Kind of test: Inhibitory activity against EZH1 methyltransferase (radiometric scintillation proximity assay).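 Note: Read-out is methylation of a substrate peptide, captured on streptavidin-coated SPA beads and counted by scintillation, in Tris-HCl buffer at pH 8.0 with 1% DMSO.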 It is filed as biochemical. To be noted: 2.3 nmol/L enzyme, 90 minutes, room temperature.

The test system of test [1] is KARPAS-422 (EZH2 Y641N mutation). Put plainly: Cell growth inhibition test, KARPAS-422. It is filed as cell-based. To be noted: Homo sapiens, KARPAS-422, 168 h, KARPAS-422, culture time 7 days; read-out: Cell growth inhibitory activity (GI50, nM) KARPAS-422 (EZH2 Y641N mutation). The method, then:
Each type of the cultured cells was seeded in 6-well plates or 48-96 well plates, and subculture or medium replacement was performed every 3 to 4 days. Next, the cells were subcultured for a total of 7 to 14 days, and then seeded in 96-well plates. 3 to 5 days before the measurement of the effect, the cells were seeded in 96-well plates, and then the absorbance (Tz) on the day of seeding was measured. The absorbance after the reaction was measured by the plate reader device Synergy NeoAlpha (Biotek) using Cell-Titer-Glo Cell Viability Assay (Promega, G7573) according to the attached manual. Based on the absorbance (Tz) measured on the seeding day and the absorbance of each of the DMSO-treated group (C) and the sample-added group (Ti) measured on the day of effect determination, the percentage of cell proliferation inhibition was calculated according to the following Equation 1. [(Ti−Tz)/(C−Tz)]×100 for concentrations for which Ti≥Tz […] for concentrations for which Ti<Tz. [Equation 1]

Chain of EZH2 (Q15910 whole entry): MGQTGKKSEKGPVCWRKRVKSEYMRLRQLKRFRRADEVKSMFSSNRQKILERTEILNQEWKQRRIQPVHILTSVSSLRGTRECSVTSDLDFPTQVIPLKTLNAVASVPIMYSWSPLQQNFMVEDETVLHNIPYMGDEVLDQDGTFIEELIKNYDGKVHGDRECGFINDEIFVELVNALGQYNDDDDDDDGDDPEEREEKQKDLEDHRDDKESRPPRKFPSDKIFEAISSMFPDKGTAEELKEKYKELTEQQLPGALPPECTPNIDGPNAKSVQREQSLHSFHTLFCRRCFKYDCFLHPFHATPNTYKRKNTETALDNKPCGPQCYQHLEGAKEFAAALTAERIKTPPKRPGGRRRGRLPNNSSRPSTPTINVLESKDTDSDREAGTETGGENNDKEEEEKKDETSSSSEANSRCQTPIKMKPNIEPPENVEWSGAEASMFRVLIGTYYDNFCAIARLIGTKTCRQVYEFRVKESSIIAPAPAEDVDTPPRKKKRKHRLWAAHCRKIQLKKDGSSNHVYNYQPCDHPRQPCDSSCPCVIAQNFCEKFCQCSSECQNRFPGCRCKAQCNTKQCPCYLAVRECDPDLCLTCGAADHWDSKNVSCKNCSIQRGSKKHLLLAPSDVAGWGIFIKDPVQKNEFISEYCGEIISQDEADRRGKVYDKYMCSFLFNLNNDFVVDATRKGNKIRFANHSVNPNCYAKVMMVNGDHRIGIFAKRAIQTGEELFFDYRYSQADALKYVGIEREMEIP
Chain of EZH2 (O75530 whole entry partner): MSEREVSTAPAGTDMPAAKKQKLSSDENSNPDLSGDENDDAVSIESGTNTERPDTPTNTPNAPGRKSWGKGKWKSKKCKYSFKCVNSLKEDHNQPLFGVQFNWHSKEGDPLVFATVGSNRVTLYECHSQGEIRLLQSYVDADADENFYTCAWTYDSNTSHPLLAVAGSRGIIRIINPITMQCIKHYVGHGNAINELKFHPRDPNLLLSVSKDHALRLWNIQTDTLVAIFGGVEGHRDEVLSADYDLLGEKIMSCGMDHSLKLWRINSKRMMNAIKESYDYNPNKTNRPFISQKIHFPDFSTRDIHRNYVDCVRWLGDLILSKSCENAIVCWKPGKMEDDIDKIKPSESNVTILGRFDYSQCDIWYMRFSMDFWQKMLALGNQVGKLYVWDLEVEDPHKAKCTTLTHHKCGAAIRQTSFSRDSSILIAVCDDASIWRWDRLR
Chain of EZH2 (Q15022 whole entry partner): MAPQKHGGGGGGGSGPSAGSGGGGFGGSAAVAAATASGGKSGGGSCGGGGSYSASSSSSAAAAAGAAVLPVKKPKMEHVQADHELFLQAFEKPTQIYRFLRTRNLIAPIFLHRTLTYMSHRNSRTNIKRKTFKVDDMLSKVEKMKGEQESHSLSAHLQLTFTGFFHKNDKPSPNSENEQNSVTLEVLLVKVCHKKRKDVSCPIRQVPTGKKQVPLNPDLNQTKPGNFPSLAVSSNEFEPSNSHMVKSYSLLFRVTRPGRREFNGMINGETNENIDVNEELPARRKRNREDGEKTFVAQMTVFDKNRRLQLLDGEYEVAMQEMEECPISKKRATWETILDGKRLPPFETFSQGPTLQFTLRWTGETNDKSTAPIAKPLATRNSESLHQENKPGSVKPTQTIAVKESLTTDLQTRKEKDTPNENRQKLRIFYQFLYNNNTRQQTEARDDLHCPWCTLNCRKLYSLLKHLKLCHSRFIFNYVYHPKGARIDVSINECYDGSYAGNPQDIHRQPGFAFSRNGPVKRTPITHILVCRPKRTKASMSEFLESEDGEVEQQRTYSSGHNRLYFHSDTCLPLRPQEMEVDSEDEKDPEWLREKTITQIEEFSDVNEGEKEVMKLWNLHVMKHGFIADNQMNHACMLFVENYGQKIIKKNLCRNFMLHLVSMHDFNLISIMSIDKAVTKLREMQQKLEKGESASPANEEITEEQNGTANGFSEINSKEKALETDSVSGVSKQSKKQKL
Chain of EZH2 (Q09028 whole entry partner): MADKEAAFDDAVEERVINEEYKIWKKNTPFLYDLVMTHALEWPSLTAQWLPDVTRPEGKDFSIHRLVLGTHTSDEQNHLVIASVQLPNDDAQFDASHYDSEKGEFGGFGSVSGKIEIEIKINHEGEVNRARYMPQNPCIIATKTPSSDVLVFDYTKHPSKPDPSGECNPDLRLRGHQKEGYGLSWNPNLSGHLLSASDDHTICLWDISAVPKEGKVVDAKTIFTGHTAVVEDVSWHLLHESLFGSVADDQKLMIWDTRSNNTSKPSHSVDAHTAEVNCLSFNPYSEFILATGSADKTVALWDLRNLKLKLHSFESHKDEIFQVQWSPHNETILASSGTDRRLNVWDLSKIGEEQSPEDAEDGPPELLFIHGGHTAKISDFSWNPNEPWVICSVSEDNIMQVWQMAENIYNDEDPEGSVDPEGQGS
Chain of EZH2 (Q6ZN18 whole entry partner): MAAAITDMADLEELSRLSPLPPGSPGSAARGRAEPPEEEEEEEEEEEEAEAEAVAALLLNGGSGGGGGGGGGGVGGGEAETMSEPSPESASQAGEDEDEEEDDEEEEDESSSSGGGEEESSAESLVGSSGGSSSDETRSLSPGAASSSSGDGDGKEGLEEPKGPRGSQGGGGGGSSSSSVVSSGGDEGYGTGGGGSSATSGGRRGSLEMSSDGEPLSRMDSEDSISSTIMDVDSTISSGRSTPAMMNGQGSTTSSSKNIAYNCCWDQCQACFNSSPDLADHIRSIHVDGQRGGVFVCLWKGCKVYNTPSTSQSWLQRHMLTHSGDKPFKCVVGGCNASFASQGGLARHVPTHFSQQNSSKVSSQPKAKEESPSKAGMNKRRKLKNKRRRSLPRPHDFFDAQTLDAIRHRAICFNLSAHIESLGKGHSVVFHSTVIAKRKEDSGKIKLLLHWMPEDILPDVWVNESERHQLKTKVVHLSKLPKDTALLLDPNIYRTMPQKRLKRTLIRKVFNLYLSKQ
T1 sequence (Q92800 whole entry): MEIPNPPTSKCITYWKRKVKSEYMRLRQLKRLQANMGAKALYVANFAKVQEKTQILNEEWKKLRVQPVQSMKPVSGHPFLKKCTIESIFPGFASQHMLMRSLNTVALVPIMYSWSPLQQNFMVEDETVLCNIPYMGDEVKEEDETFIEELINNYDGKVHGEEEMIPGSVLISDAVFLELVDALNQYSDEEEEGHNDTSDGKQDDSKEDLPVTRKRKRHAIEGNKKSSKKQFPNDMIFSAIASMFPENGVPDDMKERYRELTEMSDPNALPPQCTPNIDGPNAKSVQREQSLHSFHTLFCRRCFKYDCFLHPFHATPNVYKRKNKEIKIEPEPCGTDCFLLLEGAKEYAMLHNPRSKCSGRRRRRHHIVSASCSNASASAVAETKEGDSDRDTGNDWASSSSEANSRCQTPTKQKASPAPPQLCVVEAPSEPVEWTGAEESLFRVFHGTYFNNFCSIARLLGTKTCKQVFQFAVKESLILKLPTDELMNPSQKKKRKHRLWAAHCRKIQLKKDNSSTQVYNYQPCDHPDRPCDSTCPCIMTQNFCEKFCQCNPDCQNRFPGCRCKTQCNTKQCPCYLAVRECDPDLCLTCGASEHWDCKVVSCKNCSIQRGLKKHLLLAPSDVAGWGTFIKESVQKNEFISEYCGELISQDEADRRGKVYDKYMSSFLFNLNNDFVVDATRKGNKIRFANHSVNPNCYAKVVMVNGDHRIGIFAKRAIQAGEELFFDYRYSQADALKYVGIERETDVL
T1 sequence (O75530 whole entry partner): as the sequence (O75530 whole entry partner) above
T1 sequence (Q15022 whole entry partner): as the sequence (Q15022 whole entry partner) above
T1 sequence (Q09028 whole entry partner): as the sequence (Q09028 whole entry partner) above
T1 sequence (Q6ZN18 whole entry partner): as the sequence (Q6ZN18 whole entry partner) above
Description for EZH1: The inhibitory activities of the synthetic compounds against EZH1 or EZH2 methyltransferase were measured. The experiment was conducted by Reaction Biology Corp., and the activity of EZH1 or EZH2 was measured using a radiometric scintillation proximity assay. […] The reaction buffer consisted of 50 mmol/L Tris-HCl (pH 8.0), 50 mmol/L NaCl, 1 mmol/L EDTA, 1 mmoL/L DTT, 1 mmol/L PMSF, and 1% DMSO. Trichloroacetic acid was added to terminate the reaction, and PVT streptavidin-coated SPA beads were added to each reaction solution, followed by further reaction at room temperature for 1 hour again. The methylation value of the substrate peptide was measured using the TopCount NXT plate reader.

Turning to `Cc1cc(C)c(CN2CCc3cc4c(c(C)c3C2=O)OC(C)([C@H]2CC[C@H](N(C)C)CC2)O4)c(=O)[nH]1` (stereo partly drawn) [Compound 1, 6-((4,6-dimethyl-2-oxo-1,2-dihydropyridin-3-yl)methyl)-2(trans-4-(dimethylamino)cyclohexyl)-2,4-dimethyl-7,8-dihydro-[1,3]dioxolo[4,5-g]isoquinolin-5(6H)-one], the IC50 at EZH2 was 14.3 nM; against EZH1, 97.6 nM.
For `Cc1cc(C)c(CN2CCc3cc4c(cc3C2=O)OC(C)([C@H]2CC[C@H](N(C)C)CC2)O4)c(=O)[nH]1` (stereo partly drawn) [Compound 2, 6-((4,6-dimethyl-2-oxo-1,2-dihydropyridin-3-yl)methyl)-2(trans-4-(dimethylamino)cyclohexyl)-2-methyl-7,8-dihydro-[1,3]dioxolo[4,5-g]isoquinolin-5(6H)-one] the same measures were 7.9 nM and 371 nM.
`Cc1cc(C)c(CN2CCc3c(Cl)c4c(c(Cl)c3C2=O)OC(C)([C@H]2CC[C@H](N(C)C)CC2)O4)c(=O)[nH]1` (stereo partly drawn) [Compound 7, 4,9-dichloro-6-((4,6-dimethyl-2-oxo-1,2-dihydropyridin-3-yl)methyl)-2-(trans-4-(dimethylamino)cyclohexyl)-2-methyl-7,8-dihydro-[1,3]dioxolo[4,5-g]isoquinolin-5(6H)-one]: the IC50 on EZH2 is 3.8 nM; against EZH1, 54 nM. Moreover, the GI50 in test [1] was determined as 4.8 nM.
`CCCc1cc(C)[nH]c(=O)c1CN1CCc2c(Cl)c3c(c(C)c2C1=O)OC(C)([C@H]1CC[C@H](N(C)C)CC1)O3` (stereo partly drawn) [Compound 14, 9-chloro-2-(trans-4-(dimethylamino)cyclohexyl)-2,4-dimethyl-6-((6-methyl-2-oxo-4-propyl-1,2-dihydropyridin-3-yl)methyl)-7,8-dihydro-[1,3]dioxolo[4,5-g]isoquinolin-5(6H)-one]: the IC50 against EZH2 amounted to 3.2 nM; against EZH1, 27 nM. Further, in test [1], the GI50 was 50 nM.
`CCN[C@H]1CC[C@H](C2(C)Oc3c(C)c4c(c(Cl)c3O2)CCN(Cc2c(C)cc(C)[nH]c2=O)C4=O)CC1` (stereo partly drawn) [Compound 15, 9-chloro-6-((4,6-dimethyl-2-oxo-1,2-dihydropyridin-3-yl)methyl)-2-(trans-4-(ethylamino)cyclohexyl)-2,4-dimethyl-7,8-dihydro-[1,3]dioxolo[4,5-g]isoquinolin-5(6H)-one]: the IC50 against EZH2 was 3.6 nM; on EZH1, 65 nM. For the same compound, the GI50 in test [1] is 18 nM.
As for `CCN(CC)[C@H]1CC[C@H](C2(C)Oc3c(C)c4c(c(Cl)c3O2)CCN(Cc2c(C)cc(C)[nH]c2=O)C4=O)CC1` (stereo partly drawn) [Compound 16, 9-chloro-2-(trans-4-(diethylamino)cyclohexyl)-6-((4,6-dimethyl-2-oxo-1,2-dihydropyridin-3-yl)methyl)-2,4-dimethyl-7,8-dihydro-[1,3]dioxolo[4,5-g]isoquinolin-5(6H)-one], the IC50 was 11 nM against EZH2 and 89 nM against EZH1. Also, the GI50 in test [1] is 68 nM.
As to `Cc1cc(C)c(CN2CCc3c(Cl)c4c(c(C)c3C2=O)OC(C)([C@H]2CC[C@H](N3CCCCC3)CC2)O4)c(=O)[nH]1` (stereo partly drawn) [Compound 17, 9-chloro-6-((4,6-dimethyl-2-oxo-1,2-dihydropyridin-3-yl)methyl)-2,4-dimethyl-2-(trans-4-(piperidin-1-yl)cyclohexyl)-7,8-dihydro-[1,3]dioxolo[4,5-g]isoquinolin-5(6H)-one], the IC50 was 5.6 nM on EZH2 and 74 nM on EZH1. In addition, the concentration for 50% growth inhibition (GI50) in test [1] is 52 nM.
For the compound `Cc1cc(C)c(CN2CCc3c(Cl)c4c(c(C)c3C2=O)OC(C)([C@H]2CC[C@H](N3CCCC3)CC2)O4)c(=O)[nH]1` (stereo partly drawn) [Compound 18, 9-chloro-6-((4,6-dimethyl-2-oxo-1,2-dihydropyridin-3-yl)methyl)-2,4-dimethyl-2-(trans-4-(pyrrolidin-1-yl)cyclohexyl)-7,8-dihydro-[1,3]dioxolo[4,5-g]isoquinolin-5(6H)-one], the IC50 on EZH2 is 4.3 nM; at EZH1, 47 nM. Besides, in test [1], the GI50 worked out at 16 nM.
The compound `CC[C@H](O)C(=O)N[C@H]1CC[C@H](C2(C)Oc3c(C)c4c(c(Cl)c3O2)CCN(Cc2c(C)cc(C)[nH]c2=O)C4=O)CC1` (stereo partly drawn) [Compound 19] returned an IC50 on EZH2 of 4.4 nM. Moreover, in test [1], the concentration for 50% growth inhibition (GI50) came out at 440 nM.
For `Cc1cc(C)c(CN2CCc3c(Cl)c4c(c(C)c3C2=O)OC(C)(C[C@H]2CC[C@H](N)CC2)O4)c(=O)[nH]1` (stereo partly drawn) [Compound 20], the IC50 at EZH2 was 3.7 nM; against EZH1 it was 48 nM. In addition, the GI50 in test [1] came to 18 nM.
As for `Cc1cc(C)c(CN2CCc3c(Cl)c4c(c(C)c3C2=O)OC(C)(C[C@H]2CC[C@H](N(C)C)CC2)O4)c(=O)[nH]1` (stereo partly drawn) [Compound 21, 9-chloro-6-((4,6-dimethyl-2-oxo-1,2-dihydropyridin-3-yl)methyl)-2-((trans-4-(dimethylamino)cyclohexyl)methyl)-2,4-dimethyl-7,8-dihydro-[1,3]dioxolo[4,5-g]isoquinolin-5(6H)-one], the IC50 against EZH2 is 7.2 nM; on EZH1, 137 nM. For the same compound, the GI50 in test [1] was determined as 75 nM.
For `Cc1cc(C)c(CN2CCc3c(Cl)c4c(c(C)c3C2=O)OC(C)(C2CCCCC2)O4)c(=O)[nH]1` (stereo not drawn) [Compound 22, 9-chloro-2-cyclohexyl-6-((4,6-dimethyl-2-oxo-1,2-dihydropyridin-3-yl)methyl)-2,4-dimethyl-7,8-dihydro-[1,3]dioxolo[4,5-g]isoquinolin-5(6H)-one], in that order: 16 nM, 180 nM and greater than 1000 nM.
`Cc1cc(C)c(CN2CCc3c(Cl)c4c(c(C)c3C2=O)OC(C)(C2CCCC2)O4)c(=O)[nH]1` (stereo not drawn) [Compound 23, 9-chloro-2-cyclopentyl-6-((4,6-dimethyl-2-oxo-1,2-dihydropyridin-3-yl)methyl)-2,4-dimethyl-7,8-dihydro-[1,3]dioxolo[4,5-g]isoquinolin-5(6H)-one] returned an IC50 on EZH2 of 4.4 nM. Besides, the GI50 in test [1] was greater than 1000 nM.
In the case of `Cc1cc(C)c(CN2CCc3c(Cl)c4c(c(C)c3C2=O)OC(C)(c2ccc(N(C)C)cc2)O4)c(=O)[nH]1` (stereo not drawn) [Compound 25, 9-chloro-6-((4,6-dimethyl-2-oxo-1,2-dihydropyridin-3-yl)methyl)-2-(4-(dimethylamino)phenyl)-2,4-dimethyl-7,8-dihydro-[1,3]dioxolo[4,5-g]isoquinolin-5(6H)-one], the IC50 turned out to be 11 nM against EZH2 and 166 nM on EZH1.
On to `Cc1cc(C)c(CN2CCc3c(Cl)c4c(c(C)c3C2=O)OC(C)(c2c(C)noc2C)O4)c(=O)[nH]1` (stereo not drawn) [Compound 27], for which the IC50 was 3.9 nM against EZH2 and 310 nM against EZH1.
Consider `Cc1cc(C)c(CN2CCc3c(C)c4c(c(C)c3C2=O)OC(C)([C@H]2CC[C@H](N)CC2)O4)c(=O)[nH]1` (stereo partly drawn) [Compound 38, 2-(trans-4-aminocyclohexyl)-6-((4,6-dimethyl-2-oxo-1,2-dihydropyridin-3-yl)methyl)-2,4,9-trimethyl-7,8-dihydro-[1,3]dioxolo[4,5-g]isoquinolin-5(6H)-one], for which the IC50 stood at 4.4 nM against EZH2 and 54 nM against EZH1.
As for `Cc1cc(C)c(CN2CCc3c(C)c4c(c(C)c3C2=O)OC(C)(C2CCCCC2)O4)c(=O)[nH]1` (stereo not drawn) [Compound 44, 2-cyclohexyl-6-((4,6-dimethyl-2-oxo-1,2-dihydropyridin-3-yl)methyl)-2,4,9-trimethyl-7,8-dihydro-[1,3]dioxolo[4,5-g]isoquinolin-5(6H)-one], the IC50 is 0.4 nM against EZH2 and 34 nM at EZH1.
As for `CCN[C@H]1CC[C@H](C2(C)Oc3c(C)c4c(c(C)c3O2)C(=O)N(Cc2c(OC)cc(C)[nH]c2=O)CC4)CC1` (stereo partly drawn) [Compound 45, 2-(trans-4-(ethylamino)cyclohexyl)-6-((4-methoxy-6-methyl-2-oxo-1,2-dihydropyridin-3-yl)methyl)-2,4,9-trimethyl-7,8-dihydro-[1,3]dioxolo[4,5-g]isoquinolin-5(6H)-one], the figures for the IC50 against EZH2 and against EZH1 were 6.2 nM and 18 nM, respectively.
On to `CCN(CC)[C@H]1CC[C@H](C2(C)Oc3c(C)c4c(c(C)c3O2)C(=O)N(Cc2c(OC)cc(C)[nH]c2=O)CC4)CC1` (stereo partly drawn) [Compound 46, 2-(trans-4-(diethylamino)cyclohexyl)-6-((4-methoxy-6-methyl-2-oxo-1,2-dihydropyridin-3-yl)methyl)-2,4,9-trimethyl-7,8-dihydro-[1,3]dioxolo[4,5-g]isoquinolin-5(6H)-one], for which the IC50 against EZH2 was determined as 9.7 nM; on EZH1, 16 nM.
As to `CCN(C)[C@H]1CC[C@H](C2(C)Oc3c(C)c4c(c(C)c3O2)C(=O)N(Cc2c(OC)cc(C)[nH]c2=O)CC4)CC1` (stereo partly drawn) [Compound 47], the IC50 turned out to be 7 nM on EZH2 and 20 nM against EZH1.
On to `Cc1cc(C)c(CN2CCc3c(c(C)c4c(c3-c3ccc(CN5CCOCC5)cc3)OC(C)([C@H]3CC[C@H](N(C)C)CC3)O4)C2=O)c(=O)[nH]1` (stereo partly drawn) [Compound 55, 6-((4,6-dimethyl-2-oxo-1,2-dihydropyridin-3-yl)methyl)-2-(trans-4-(dimethylamino)cyclohexyl)-2,4-dimethyl-9-(4-(morpholinomethyl)phenyl)-7,8-dihydro-[1,3]dioxolo[4,5-g]isoquinolin-5(6H)-one], for which the figures for the IC50 at EZH2 and on EZH1 were 5.6 nM and 26 nM, respectively.

As usually defined, the IC50 is the concentration needed to halve the response being measured. Higher therefore signals weaker potency in that assay. What is called GI50 is the concentration giving 50% growth inhibition.
